Results as given in patent US20250163044A1, “COMPOUNDS” (PSYLO PTY LTD, priority 2021, published 2025).

Key:
[1] = tested on: C57BL/6J mice; test: Biotelemetry and head-twitch response (HTR) experiments; type: in vivo, Mice (C57BL/6J males); details: male C57BL/6 mice, SC, several doses (0.03 to 30 mg/kg)
Text: Mice (C57BL/6J males) were purchased from the Jackson Laboratory (Bar Harbor, ME, USA) at 5-6 weeks of age and allowed at least 1-2 weeks to acclimate to the NIDA, Intramural Research Program (IRP), animal research facility in Baltimore, MD, USA. The animal facility is fully accredited by the Association for the Assessment and Accreditation of Laboratory Animal Care, and all procedures were approved by the NIDA IRP Animal Care and Use Committee. Mice were initially group housed 3-5 per cage during acclimation and housed in a 12 h light-dark cycle throughout the study, with lights on at 0700 h. Food and water were available ad libitum except during testing. Cohorts of 20-24 mice were used for each test drug. The mice were subjected to experimental testing once every 1-2 weeks for 2-3 months to complete dose-effect curves and antagonist experiments. A minimum of 7 days between treatments was utilized to avoid any tolerance to effects of repeated drug administration. All drug doses represent the weight of the salt dissolved in 0.9% saline vehicle. Mice were tested first in dose-response studies to assess the effects of each compound at doses from 0.03 to 30 mg/kg s.c. and were subsequently tested in antagonist reversal studies utilizing pretreatment with M100907 and WAY100635. All experiments were conducted from 0900 to 1700 local time during the light phase, as sensitivity of rodents to other tryptamine psychedelics is diurnal, with maximal HTR observed in the middle of the light phase. Experiments were run during the light phase also to avoid any potential influence of melatonin receptor activity on HTR as melatonin and related agonists are known to reduce HTR induced by DOI in rats. For each experiment, mice were acclimated to the testing room in their home cage for at least 1 h prior to experimental sessions. Behavioral test sessions were carried out in Tru Scan mouse locomotor arenas equipped with photobeam arrays (Coulbourn Instruments, Holliston, MA, USA), which were modified with cylindrical inserts and transparent floors useful in detecting mouse HTR.
Subcutaneous Temperature Transponder Implants. At least 1 week prior to the start of the experiments, mice received s.c. implanted temperature transponders (14×2 mm, model IPTT-300, Bio Medic Data Systems, Inc., Seaford, DE, USA) under brief isoflurane anesthesia. Mice were single housed post implant for the remainder of the study to protect the transponder from removal by cage mates. Temperature was determined noninvasively using a handheld receiver that is sensitive to signals emitted from the implanted transponders.
Prior to each experiment, mouse body weight and temperature were recorded. Mice were then placed into testing chambers for acclimation. In dose-response studies, after a brief 5 min acclimation, mouse body temperature was recorded for baseline measurement, mice received s.c. injection of test substance or vehicle, and animals were returned to the testing arena for 30 min. During the session, locomotor activity was monitored via photobeam tracking of movements in the horizontal plane to yield distance traveled in centimeter. HTR was monitored by the analysis of GoPro Hero Black 7 video recordings (120 frames per sec and 960p resolution) using a commercially available software package from Clever Sys Inc. (Reston, VA, USA). 82 Post-treatment body temperature values were also recorded, and temperature data are represented as change from pretreatment baseline.
In antagonist reversal experiments, mice received a s.c. injection of either receptor antagonists or vehicle and were returned to the testing chamber for 30 min. During this period, locomotor activity was monitored to examine the potential effects of antagonist treatment on general behavior or movement. At 30 min after antagonist administration, mice were given test drug or vehicle and returned to the chambers for an additional 30 min of video recording used for analyses. […]

[2] = tested on: Male ICR mice; test: Acute restraint stress - tail suspension test (TST); type: in vivo; details: ICR mice after 5 h acute restraint stress, IP, 10 min before test; P-3 3, 10 mg/kg; P-8 3, 10, 30 mg/kg
Method: Male ICR mice (23±3 g) were purchased from BioLASCO (Taipei, Taiwan) at 4-5 weeks of age and allowed 5-7 days to acclimate to the animal research facility at Pharmacology Discovery Services (Taipei, Taiwan). Mice were housed in groups of 10 in a large cage (47×25×15 cm) on a 12-hour light cycle (lights on: 0700) and provided ad libitum food and water except during acute restraint stress and tail-suspension testing. Temperature was maintained at 20-24° C., and all rooms (colony and testing rooms) had similar lighting intensity. All aspects of this work including housing, experimentation, and animal disposal were performed in accordance with the “Guide for the Care and Use of Laboratory Animals: Eighth Edition” (The National Academies Press, Washington, DC, 2011) in a facility accredited by the Association for Assessment and Accreditation of Laboratory Animal Care. […]
Tail Suspension Test (TST) Procedure: Mice were individually suspended on the edge of a shelf, 58 cm above a tabletop, using adhesive tape placed approximately 1 cm from the tip of the tail, for a total duration of 7 minutes. Using a stopwatch, the experimenters blinded to treatment groups recorded the duration of immobility (defined as hanging passively and motionless) during the 5 minutes spanning from 2-7 minutes. The data from 0-2 minutes was not recorded. […]

[3] = molecular target: T1, 5-HT2B receptor (Homo sapiens, UniProt P41595); test: FLIPR Ca2+ flux functional assay, agonist activity at 5-HT2B; type: cell-based; details: CHO-K1 cells, Ca2+ flux; read-out: 5-HT2B EC50
T1 construct: host or cells: CHO-K1
T1 sequence (P41595 whole entry): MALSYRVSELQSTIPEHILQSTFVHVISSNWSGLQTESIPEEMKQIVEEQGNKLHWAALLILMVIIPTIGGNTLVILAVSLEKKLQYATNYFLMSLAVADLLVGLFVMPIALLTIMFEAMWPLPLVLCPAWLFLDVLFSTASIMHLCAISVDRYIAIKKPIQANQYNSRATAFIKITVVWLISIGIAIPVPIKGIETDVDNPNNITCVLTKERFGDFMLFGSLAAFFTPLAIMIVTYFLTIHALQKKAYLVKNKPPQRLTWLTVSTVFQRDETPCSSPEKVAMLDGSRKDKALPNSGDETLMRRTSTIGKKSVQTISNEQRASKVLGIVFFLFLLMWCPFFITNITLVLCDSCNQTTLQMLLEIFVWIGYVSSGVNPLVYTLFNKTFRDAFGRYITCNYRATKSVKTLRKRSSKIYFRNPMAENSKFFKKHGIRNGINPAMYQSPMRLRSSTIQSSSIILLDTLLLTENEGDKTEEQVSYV
Summary of the method: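 Stably transfected cells (HEK293 for 5-HT2A/2C, CHO-K1 for 5-HT2B) loaded 50 min at 37° C with Fluo-4 Direct dye plus 2.5 mM probenecid (final). Compounds tested as 10-point serial dilutions (3-fold; references 4-fold) and calcium fluorescence read on FLIPR Tetra after addition.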

## COc1cnc2[nH]cc(CCN(C)C)c2c1 [Example P-3, 2-(5-methoxy-1H-pyrrolo[2,3-b]pyridin-3-yl)-N,N-dimethylethan-1-amine]
[1]
  Head-twitch response (HTR): not promoting increased head-twitch response
  Tolerability (temperature, locomotor activity): well-tolerated
[2]
  Immobility time in tail suspension test: decrease the immobility time

## COc1ccc2[nH]nc(CCN(C)C)c2c1 [Example P-8, 2-(5-methoxy-1H-indazol-3-yl)-N,N-dimethylethan-1-amine]
[3]
  EC50: > 10 µM
[2]
  Immobility time in tail suspension test: decrease the immobility time
